These results are taken from patent US5314886A, “N-substituted lactams useful as cholecystokinin antagonists” (priority 1992, dated 1994).

One test has as its target T1, CCK-A (Rattus norvegicus, UniProt P30551).
T1 sequence (P30551 1-444): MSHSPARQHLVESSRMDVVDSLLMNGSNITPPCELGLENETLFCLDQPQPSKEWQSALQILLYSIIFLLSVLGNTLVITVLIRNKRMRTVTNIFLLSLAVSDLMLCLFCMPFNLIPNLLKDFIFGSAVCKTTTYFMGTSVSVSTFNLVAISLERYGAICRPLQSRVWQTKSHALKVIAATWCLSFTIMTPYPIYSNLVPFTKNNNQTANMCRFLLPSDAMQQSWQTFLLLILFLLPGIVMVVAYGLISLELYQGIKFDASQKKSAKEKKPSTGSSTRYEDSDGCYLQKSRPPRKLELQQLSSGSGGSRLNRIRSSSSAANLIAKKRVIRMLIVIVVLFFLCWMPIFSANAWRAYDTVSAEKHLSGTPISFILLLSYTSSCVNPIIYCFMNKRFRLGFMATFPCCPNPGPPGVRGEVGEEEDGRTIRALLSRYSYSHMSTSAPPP
The test is described as follows: Displacement of 125I-CCK-OP binding to rat pancreatic membranes (CCK-A binding). Particulars: 125I-CCK-OP. In general terms: Loss of bound radioactivity is the signal in a displacement assay; it reports binding, not function.

The next test concerns CCK receptors. In words: Rat gastric emptying: reversal of CCK-delayed gastric emptying. Conditions: CCK 100 μg/Kg i.p.; for CCK-delayed gastric emptying: ED50: IP. Type of test: in vivo. The procedure:
Rat Gastric Emptying Protocol
A test meal for measuring gastric emptying in rats was prepared. Ten grams of methylcellulose (2% solution=15 centipoises; Aldrich Chemical Company, Milwaukee, Wisc. was added to 200ml of cold water and mixed at 20,000 rpm in a Waring blender to insure dispersion and hydration of the methylcellulose. In addition, two beef bouillon cubes (Wyler's, Columbus, Ohio) dissolved in 100 ml of warm water was added to the mixture, followed by 16 g of casein (Hammersten, Schwartz/Mann, Orangeburg, N.Y.), 8 g of powdered confectioners sugar and 8 g of cornstarch. The ingredients were mixed for two minutes at 20,000 rpm and the resultant test meal was refrigerated for 48 hours to allow trapped air to escape. Male Charles River Rats, Crl: COBS, CD (SD) BR Strain, 180-200 g body weight, were used in groups of six animals. The animals were food deprived for 24 hours prior to the experiment with access to water ad libitum. The compounds to be evaluated were prepared in a 0.5% aqueous methylcellulose solution. If insoluble, the mixture was homogenized for two minutes at 5500 rpm using a Try-R-Stir-R. The compounds were given intraperitoneally or intragastrically at a volume of 5 ml/kg, 60 minutes or 90 min, respectively, before the test meal. Control animals received only the vehicle. Cholecystokinin (100 μg/Kg, i.p.) was given 30 minutes before the test meal to delay gastric emptying by an effect elicited through CCK receptors. Sixty minutes after the test meal (2.0 ml/rat, i.g.), the rats were sacrificed by CO2 asphyxiation. The stomachs were removed intact and weighed. The stomachs were kept opened, gently rinsed with tap water, blotted dry with paper toweling, and the empty stomach weighed. The difference between the weight of the full and empty stomach is indicative of the amount of meal remaining in the stomach. The amount of meal remaining in the stomach was subtracted from the weight of 3 ml of the test meal to determine the amount of food emptied from the stomach during the test. Weight of the test meal was determined by weighing three samples (3 ml) at the beginning and three samples at the end of each experiment and calculating the mean. The mean and standard error of the amount of meal emptied were calculated for at least 5 doses of compound, and expressed as percent change from control.

The target in the next test is T2, CCK-B (Cavia porcellus, UniProt H0VZC5).
T2 construct: Rat pancreas or guinea pig brain was homogenized; from tissue; host or cells: guinea pig brain homogenate (membrane pellet)
T2 sequence (H0VZC5 1-426): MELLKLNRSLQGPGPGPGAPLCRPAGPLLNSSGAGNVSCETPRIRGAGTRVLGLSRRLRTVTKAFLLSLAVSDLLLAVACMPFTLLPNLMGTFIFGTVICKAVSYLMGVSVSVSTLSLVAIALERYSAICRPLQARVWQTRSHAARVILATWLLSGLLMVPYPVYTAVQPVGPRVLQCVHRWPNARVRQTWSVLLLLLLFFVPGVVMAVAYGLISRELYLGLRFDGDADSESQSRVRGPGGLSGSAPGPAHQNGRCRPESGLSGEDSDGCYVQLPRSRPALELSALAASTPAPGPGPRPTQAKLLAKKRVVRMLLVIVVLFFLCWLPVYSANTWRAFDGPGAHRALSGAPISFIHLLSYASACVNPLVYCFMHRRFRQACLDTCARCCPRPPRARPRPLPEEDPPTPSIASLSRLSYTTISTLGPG
In words: Displacement of 125I-CCK-OP binding to guinea pig brain homogenates (CCK-B binding). Conditions: guinea pig brain membranes; for inhibition at 10 µM: read-out: CCK-B binding GP brain membranes: percent displacement of 125I-CCK-OP. Here is the method: Percent displacement of ^125 I-CCK-OP binding to rat pancreatic membrane and guinea pig brain homogenates by compounds of the instant invention at different concentrations was used to quantify CCK-A and CCK-B receptor binding, respectively.
Binding of 125-CCK-OP to rat pancreas (CCK-A) and guinea pig brain (CCK-B) homogenates.
Rat pancreas or guinea pig brain was homogenized in 50 and 20 volumes, respectively, of 50 mM Tris-HCl buffer (pH 7.8 at 25° C.) with a Brinkmann polytron homogenizer. The homogenates were centrifuged twice at 50,000 x g for 20 min with an intermediate rehomogenization in fresh buffer. The final pellets were resuspended in 20 volumes (brain) or 40 volumes (pancreas) of incubation buffer [50 mM Tris-HCl, 5 mM MgCl2, 0.2% BSA, 5 mM dithiothreitol, 0.14 mg/ml bacitracin, pH 7.9 at 25° C.]. One milliliter of the final homogenate from brain or pancreas was diluted to 50 mL with incubation buffer to use in the binding assay.
Binding experiments were performed in a final volume of 1 mL in 13×100 mm borosilicate disposable culture tubes. To duplicate tubes were added 890 μL of freshly resuspended pancreas or brain homogenate; 73,000 dpm of […] (final concentration, 12 pM) and 10 μL of DMSO containing displacing agents (compounds or reference compounds, at the desired final concentrations). Nonspecific (nonsaturable) binding was determined in the presence of 1 μM unlabeled CCK-OP. After incubation for 30 min at 37° C. the binding was stopped by rapid filtration under a reduced pressure through glass fiber FPD-105 Whatman GF/B filters on Harvester and washed twice with 5 mL of ice-cold Tris buffer (50 mM Tris-HCl, pH 7.8). The radioactivity on the filters was counted in a gama counter. […] Specific binding was defined as the excess binding over that in blanks containing 1 μM unlabeled CCK-OP.
Determination of IC50 for displacing agents

For the compound `O=C(N[C@@H]1C(=O)N(c2ccccc2)C[C@@H]1C(=O)O)c1ccc2ccccc2c1` (relative stereo) [41 cis], on CCK-A, the half-maximal inhibitory concentration (IC50) was 15 nM. Moreover, the “CCK-delayed gastric emptying: ED50” value in the test with CCK receptors is given as 0.41 mpk. The inhibition at 10 µM on CCK-B worked out at 48%.
`O=C(N[C@@H]1C(=O)N(c2ccccc2)C[C@H]1C(=O)O)c1ccc2ccccc2c1` (relative stereo) [41 trans]: the “CCK-delayed gastric emptying: ED50” value in the test with CCK receptors is 3.2 mpk. Also, at CCK-B, the inhibition at 10 µM worked out at 22%.
Consider `O=C(N[C@H]1C(=O)N(c2ccccc2)C[C@H]1C(=O)O)c1cc2ccccc2[nH]1` (relative stereo) [Example 29, cis-4-[(1H-indol-2-ylcarbonyl)amino]-5-oxo-1-phenyl-3-pyrrolidinecarboxylicacid], for which the IC50 at CCK-A was 17 nM; on CCK-B (125I-CCK-OP, read-out: CCK-B binding GP brain membranes: IC50) it was 5100 nM. In the test with CCK receptors (1.0 mpk IP), the “CCK-delayed gastric emptying: % Reversal @ Dose” value was 86.3%. Besides, in the test with CCK receptors, the “CCK-delayed gastric emptying: ED50” value was below 0.1 mpk.
On to `O=C(N[C@H]1C(=O)N(c2ccccc2)C[C@H]1C(=O)O)c1ccc(Cl)c(Cl)c1` (relative stereo) [Example 35 (cis), cis-4-[[(3,4-dichlorophenyl)carbonyl]amino]-5-oxo-1-phenyl-3-pyrrolidinecarboxylic acid], for which the IC50 on CCK-A worked out at 58 nM. The “CCK-delayed gastric emptying: % Reversal @ Dose” value with CCK receptors (3 mpk IP) worked out at 57.9%. Also, the inhibition at 10 µM at CCK-B was 35%.
As to `O=C(N[C@H]1C(=O)N(c2ccccc2F)C[C@H]1C(=O)O)c1ccc2ccccc2c1` (relative stereo) [Example 44, cis-1-(2-Fluorophenyl)-4-[(2-naphthalenylcarbonyl]amino]-5-oxo-3-pyrrolidinecarboxylic acid], the “CCK-delayed gastric emptying: % Reversal @ Dose” value in the test with CCK receptors (3 mpk IP) is reported as 86%. For the same compound, the “CCK-delayed gastric emptying: ED50” value in the test on CCK receptors is listed as 1.7 mpk. At CCK-B, the inhibition at 10 µM was 41%.

As a reminder, the IC50 is the concentration needed to halve the response being measured.
